Test results as given in patent US8329675B2, “Inhibitors of fatty acid amide hydrolase” (Infinity Pharmaceuticals, Inc., priority 2006, dated 2012).

biological target: T1, human FAAH (Homo sapiens, UniProt O00519); assay: Human FAAH biochemical inhibition assay (AMC arachidonoyl amide fluorescence); conditions: Table 2, human FAAH (no asterisk); read-out: Activity (Ki)
T1 construct: host or cells: COS-7 cells, transient transfection; 13,000 g membrane fraction solubilised in 1% Triton X-100
T1 sequence (O00519 1-579): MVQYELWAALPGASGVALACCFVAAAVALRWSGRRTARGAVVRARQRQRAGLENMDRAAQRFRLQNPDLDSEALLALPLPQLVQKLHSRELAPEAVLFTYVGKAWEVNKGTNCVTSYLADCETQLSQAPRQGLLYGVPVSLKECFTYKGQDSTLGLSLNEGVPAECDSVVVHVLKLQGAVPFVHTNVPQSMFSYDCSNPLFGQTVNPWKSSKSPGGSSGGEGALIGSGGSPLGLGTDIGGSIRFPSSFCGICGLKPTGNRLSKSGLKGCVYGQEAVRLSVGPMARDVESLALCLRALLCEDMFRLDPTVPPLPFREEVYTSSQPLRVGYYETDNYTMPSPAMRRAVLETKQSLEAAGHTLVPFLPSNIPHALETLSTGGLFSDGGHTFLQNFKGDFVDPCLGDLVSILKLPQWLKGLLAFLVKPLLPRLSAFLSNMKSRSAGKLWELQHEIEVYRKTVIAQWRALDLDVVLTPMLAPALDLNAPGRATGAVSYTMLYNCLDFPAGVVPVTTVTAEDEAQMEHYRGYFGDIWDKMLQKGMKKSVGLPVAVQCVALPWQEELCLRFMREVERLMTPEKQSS
Procedure: The resulting solution is added into one dish of 30-40% confluent COS-7 cells in a drop-wise manner. The COS-7 cell dish is subsequently incubated for 48 hours. The cells are then harvested.
Harvest procedure: Media was aspirated from the dishes and the cells rinsed with 10 mL PBS. The PBS was removed and 3 mLs of PBS added to the dish. The dish was scraped to resuspend the cells, and the subsequent cell suspension collected into a 15 ml conical tube. The cells were pelleted by centrifugation at 1200 rpm for 5 minutes in a bench top centrifuge. PBS was removed and the cell pellet snap frozen in liquid nitrogen, store at −80 C.
The pellets were dounce homogenized and then sonicated to produce cell extract. The cell extract was subsequently centrifuged at 1000 g to remove cellular debris. The pellet was discarded and the supernatant centrifuged at 13,000 g for 20 minutes. The pellet contained membrane bound FAAH. The supernatant was discarded and the pellet resolubilized.
(2) Re-solubilization: The fraction of interest, (13,000 g, membrane fraction) was re-suspended in re-suspension buffer (20 mM Hepes pH 7.8, 10% v/v Glycerol, 1 mM EDTA, 1% Triton X-100) (2.3 mL re-suspension and the sample incubated on ice for 1 hour and then centrifuged to at 13,000 g remove any particulate matter. The supernatant containing solubilized human FAAH was aliquoted and snap frozen in liquid nitrogen and stored at −80° C. until use.
FAAH reaction buffer: 50 mM Hepes (pH 7.5), 1 mM EDTA, 0.2% Triton X-100.
Human FAAH assay; Experimental Protocol: A 0.1 mg/mL Human FAAH solution is made up in FAAH reaction buffer, and 24 ul pipetted into a 384 well plate. To this is added 1 uL of a 3 fold serially diluted inhibitor from a DMSO stock solution. The FAAH solution and inhibitor are incubated for 30 minutes at room temperature. The FAAH reaction is initiated by the addition of 25 uL of 40 uM AMC Arachidonoyl Amide in FAAH reaction buffer, yielding a final reaction human FAAH preparation concentration of 0.05 mg/ml and AMC-Arachidonoyl substrate concentration of 20 uM, reaction volume 50 uL. The reaction is allowed to proceed for 4 hours at room temperature. […] The microtiter plate in read in the envision plate reader.

| SMILES | Ki [nM] |
| --- | --- |
| OB(O)c1ccc(OCCc2cccc(OCCCc3ccccc3)c2)cc1F [II-17] | < 10 |
| CCCCOc1cccc(CCOc2ccc(B(O)O)c(F)c2)c1 [II-18] | < 10 |
| O=C(CCCCc1ccccc1)Nc1cccc(CCOc2ccc(B(O)O)c(F)c2)c1 [II-19] | < 10 |
| OB(O)c1ccc(-c2cccc(F)c2)c(Cl)c1 [II-20] | 10 to 100 |
| CCCCCC(=O)Nc1cccc(CCOc2ccc(B(O)O)c(F)c2)c1 [II-21] | < 10 |
| CN(C)CCCC(=O)Nc1cccc(CCOc2ccc(B(O)O)c(F)c2)c1 [II-22] | 10 to 1000 |
| OB(O)c1csc2c(Cl)cccc12 [II-23] | 10 to 100 |
| OB(O)c1csc2cc(Cl)ccc12 [II-24] | 10 to 100 |
| O=C1c2cc(B(O)O)ccc2CC1Cc1ccccc1 (centres unmarked) [II-25] | < 10 |
| OB(O)c1ccc(-c2cccc(-c3ccccc3)c2)cc1F [II-26] | < 10 |
| O=C(CCc1ccc(B(O)O)c(F)c1)c1ccccc1 [II-27] | < 10 |
| OB(O)c1ccc(COCc2ccccc2)cc1F [II-28] | < 10 |
| O=C1c2ccc(B(O)O)cc2CC1Cc1ccccc1 (centres unmarked) [II-29] | < 10 |
| OB(O)c1ccc2c(c1)Cc1ccccc1-2 [II-30] | 10 to 100 |
| OB(O)c1ccc2sc3ccccc3c2c1 [II-31] | 10 to 1000 |
| Cc1ccc(C)n1-c1ccc(B(O)O)cc1 [II-32] | > 1000 |
| Cc1cc(B(O)O)ccc1-c1ccccc1 [II-33] | 10 to 100 |
| Nc1ccc(CCOc2ccc(B(O)O)c(F)c2)cc1 [II-35] | < 10 |
| OB(O)c1ccc(-c2nc3ccccc3s2)cc1 [II-36] | > 1000 |
| Nc1cccc(CCOc2ccc(B(O)O)c(F)c2)c1 [II-37] | < 10 |
| COc1cccc2c(C(O)O)coc12 [II-38] | > 1000 |
| CC(C)(C)OC(=O)Nc1ccc(CCOc2ccc(B(O)O)c(F)c2)cc1 [II-39] | 10 to 100 |
| O=[N+]([O-])c1cccc(CCOc2ccc(B(O)O)c(F)c2)c1 [II-40] | > 1000 |
| Cn1c(-c2ccc(B(O)O)cc2)nc2ccccc21 [II-41] | > 1000 |
| Cc1nc2cc(B(O)O)ccc2s1 [II-42] | 10 to 1000 |
| OB(O)c1ccc(COCc2ccccc2)c(Cl)c1 [II-43] | < 10 |
| O=C(CCc1ccccc1)c1ccc(B(O)O)c(F)c1 [II-44] | < 10 |
| Cc1ncc(-c2ccc(B(O)O)cc2)s1 [II-45] | > 1000 |

| SMILES | Ki [nM] |
| --- | --- |
| OB(O)c1ccc(CCCc2ccccc2)cc1F [II-46] | < 10 |
| OB(O)c1ccc2occc2c1 [II-47] | 10 to 1000 |
| OB(O)c1ccc(COCc2cc(Cl)cc(Cl)c2)cc1F [II-48] | < 10 |
| OB(O)c1ccc2sccc2c1 [II-49] | 10 to 1000 |
| CCOc1ccc(CCOc2ccc(B(O)O)c(F)c2)cc1 [II-50] | < 10 |
| COc1cccc(CCOc2ccc(B(O)O)c(F)c2)c1 [II-51] | < 10 |
| OB(O)c1ccc(OCCc2ccc(C(F)(F)F)cc2)cc1F [II-52] | < 10 |
| OB(O)c1ccc(OCCc2cccc(C(F)(F)F)c2)cc1F [II-53] | < 10 |
| c1ccc(CCCB(Oc2cccc3cccnc23)c2ccc(Oc3ccccc3)cc2)cc1 [II-54] | < 10 |
| CCCCB(Oc1cccc2cccnc12)c1ccc(Oc2ccccc2)cc1 [II-55] | < 10 |
| OB(O)c1ccc(OCCc2ccccc2)c(Cl)c1 [II-57] | < 10 |
| Cc1sc2ccccc2c1B(O)O [II-58] | > 1000 |
| OB(O)c1ccc(-c2ccco2)cc1 [II-59] | 10 to 100 |
| Cc1ccc2ccc(B(O)O)c(F)c2n1 [II-60] | > 1000 |
| OB(O)c1ccc(OCCc2cccc(Cl)c2)cc1F [II-61] | < 10 |
| OB(O)c1ccc(OCCc2ccc(Cl)c(Cl)c2)cc1F [II-62] | < 10 |
| OB(O)c1ccc(C(OCc2ccccc2)c2ccccc2)cc1 (centres unmarked) [II-63] | 10 to 1000 |
| OB(O)c1ccc(-c2nc3ccccc3[nH]2)cc1 [II-64] | > 1000 |
| Cc1ccc2scc(B(O)O)c2c1 [II-65] | 10 to 1000 |
| OB(c1ccccc1)c1ccc(Oc2ccccc2)cc1 [II-66] | 10 to 100 |
| OB(O)c1ccc2scc(COc3ccccc3)c2c1 [II-67] | > 1000 |
| OB(O)c1ccc(CCCc2ccccc2)cc1 [II-68] | < 10 |
| OB(O)c1ccc(OCCN2CCCCC2)cc1F [II-69] | 10 to 1000 |
| OB(O)c1ccc(COCc2ccc(C(F)(F)F)cc2)cc1F [II-71] | < 10 |
| OB(O)c1ccc(COCc2cccc(C(F)(F)F)c2)cc1F [II-72] | < 10 |
| OB(O)c1ccc2sc(COc3ccccc3)cc2c1 [II-73] | < 10 |
| OB(O)c1ccc(COCc2ccccc2C(F)(F)F)cc1F [II-74] | < 10 |

Results, then the compound that gave them:

| Ki [nM] | SMILES |
| --- | --- |
| < 10 | c1ccc(Oc2ccc(B(Oc3cccc4cccnc34)c3ccccc3)cc2)cc1 [II-75] |
| < 10 | O=C(CCCc1ccc(B(O)O)cc1)c1ccccc1 [II-76] |
| 10 to 100 | OB(O)c1ccc(-c2cnco2)cc1 [II-77] |
| < 10 | CN(C)c1cccc(Oc2ccc(B(O)O)cc2)c1 [II-78] |
| > 1000 | [O-][S+](Cc1ccc(B(O)O)c(F)c1)c1ccccc1 (centres unmarked) [II-79] |
| > 1000 | O=S(=O)(Cc1ccccc1)Cc1ccc(B(O)O)c(F)c1 [II-80] |
| 10 to 1000 | [O-][S+](Cc1ccccc1)Cc1ccc(B(O)O)c(F)c1 (centres unmarked) [II-81] |
| < 10 | OB(O)c1ccc(Cc2ccccc2)cc1 [II-82] |
| > 1000 | OB(c1ccccc1)c1ccccc1 [II-83] |
| 10 to 100 | OB(O)c1ccc(C(O)c2ccccc2)cc1 (centres unmarked) [II-84] |
| < 10 | OB(O)c1ccc(Oc2cccc(F)c2)c(F)c1 [II-85] |
| < 10 | C[N+]12CC(=O)O[B-]1(c1ccc(-c3cccc(F)c3)cc1F)OC(=O)C2 (centres unmarked) [II-86] |
| > 1000 | CNc1cc(B(O)O)cc(C(=O)O)c1 [II-87] |
| > 1000 | CN(C)c1cc(B(O)O)cc(C(=O)O)c1 [II-88] |
| 10 to 100 | CN(Cc1ccccc1)Cc1ccc(B(O)O)c(F)c1 [II-90] |
| < 10 | OB(O)c1ccc(CN2CCc3ccccc32)cc1F [II-91] |

| Ki [nM] | SMILES |
| --- | --- |
| < 10 | OB(O)c1ccc(OCCC2CCCCC2)cc1F [II-92] |
| 10 to 100 | OB(O)c1ccc(COC2C3CC4CC(C3)CC2C4)cc1 (centres unmarked) [II-93] |
| 10 to 100 | OB(O)c1ccc(COCc2ccccc2-c2ccccc2)cc1 [II-94] |
| < 10 | OB(O)c1ccc2c(c1)CCC(OCc1ccccc1)C2 (centres unmarked) [II-95] |
| 10 to 100 | O=C(N[C@H](COc1ccc(B(O)O)c(F)c1)Cc1ccccc1)c1ccccc1 [II-96] |
| 10 to 1000 | CN(Cc1ccccc1)[C@H](COc1ccc(B(O)O)c(F)c1)Cc1ccccc1 [II-97] |
| > 1000 | CN(C)[C@H](COc1ccc(B(O)O)c(F)c1)Cc1ccccc1 [II-98] |
| > 1000 | OB(O)Cc1ccc(-c2ccccc2)cc1 [II-99] |
| 10 to 100 | OB(O)c1ccc(COCC2CCCCC2)cc1 [II-100] |
| 10 to 100 | OB(O)c1ccc(COCC23CC4CC(CC(C4)C2)C3)cc1 [II-101] |
| 10 to 100 | OB(O)c1ccc(COCC2CCCCO2)cc1 (centres unmarked) [II-102] |
| > 1000 | CN(C)[C@@H](COc1ccc(B(O)O)c(F)c1)Cc1ccccc1 [II-103] |
| < 10 | OB(O)c1ccc2oc(COc3ccccc3)cc2c1 [II-104] |
| 10 to 1000 | O=C(N[C@@H](COc1ccc(B(O)O)c(F)c1)Cc1ccccc1)c1ccccc1 [II-105] |
| 10 to 1000 | CN(Cc1ccccc1)[C@@H](COc1ccc(B(O)O)c(F)c1)Cc1ccccc1 [II-106] |
